From ChEMBL document CHEMBL3885881, “DrugMatrix”

Species: Rattus norvegicus
Assay: DrugMatrix - Regimen: Daily Repeat
Format: toxicity, organism-based, Sprague-Dawley
Set-up: regimen Daily Repeat, gender Male, age 6-8 weeks
Conditions: in vivo, po, route oral GAVAGE, vehicle .5 % CMC; for URIC ACID / ALANINE AMINOTRANSFERASE / ALBUMIN / ALKALINE PHOSPHATASE / ASPARTATE AMINOTRANSFERASE / BLOOD UREA NITROGEN / CARBON DIOXIDE / CHLORIDE / CHOLESTEROL / CREATINE PHOSPHOKINASE / CREATININE / GLUCOSE / LACTATE DEHYDROGENASE / LIPASE / PHOSPHORUS / POTASSIUM / SODIUM / TOTAL BILIRUBIN / TOTAL PROTEIN: tissue Plasma; for ABSOLUTE BASOPHIL / ABSOLUTE EOSINOPHIL / ABSOLUTE LYMPHOCYTE / ABSOLUTE MONOCYTE / ABSOLUTE SEGMENTED NEUTROPHIL / BASOPHIL / EOSINOPHIL / ERYTHROCYTE COUNT / HEMATOCRIT / HEMOGLOBIN / LEUKOCYTE COUNT / LYMPHOCYTE / MEAN CORPUSCULAR HEMOGLOBIN / MEAN CORPUSCULAR HEMOGLOBIN CONCENTRATION / MEAN CORPUSCULAR VOLUME / MONOCYTE / NEUTROPHIL / NUCLEATED RED BLOOD CELLS / PLATELET COUNT: tissue Blood
[1] = 250 mg/kg, 120 h, dose level High, time 5 day
[2] = […], 72 h, dose 0.25 mg/Kg, dose level Low, time 3 day
[3] = […], 120 h, dose 0.25 mg/Kg, dose level Low, time 5 day

## C#C[C@]1(O)CC[C@H]2[C@@H]3CCc4cc(OC)ccc4[C@H]3CC[C@@]21C [MESTRANOL]
250 mg/kg, 72 h, dose level High, time 3 day
  URIC ACID: 1.23 mg/dL
[1]
  ABSOLUTE BASOPHIL: 0 CELLS/uL
  ABSOLUTE EOSINOPHIL: 0 CELLS/uL
  ABSOLUTE LYMPHOCYTE: 11929 CELLS/uL
  ABSOLUTE MONOCYTE: 0 CELLS/uL
  ABSOLUTE SEGMENTED NEUTROPHIL: 1137.67 CELLS/uL
  BASOPHIL: 0%
  EOSINOPHIL: 0%
  ERYTHROCYTE COUNT: 6.07 x10E6/uL
  HEMATOCRIT: 37.27%
  HEMOGLOBIN: 14.37 G/DL
  LEUKOCYTE COUNT: 13.07 x10E3/uL
  LYMPHOCYTE: 91.33%
  MEAN CORPUSCULAR HEMOGLOBIN: 23.67 pg
  MEAN CORPUSCULAR HEMOGLOBIN CONCENTRATION: 38.53 G/DL
  MEAN CORPUSCULAR VOLUME: 61.37 fL
  MONOCYTE: 0%
  NEUTROPHIL: 8.67%
  NUCLEATED RED BLOOD CELLS: 0 /100WBC
  PLATELET COUNT: 1600 x10E3/uL
  ALANINE AMINOTRANSFERASE: 72.67 u/L
  ALBUMIN: 4.13 G/DL
  ALKALINE PHOSPHATASE: 667.33 u/L
  ASPARTATE AMINOTRANSFERASE: 77.67 u/L
  BLOOD UREA NITROGEN: 14.67 mg/dL
  CARBON DIOXIDE: 23.67 mmol/L
  CHLORIDE: 102 MEQ/L
  CHOLESTEROL: 4.67 mg/dL
  CREATINE PHOSPHOKINASE: 223.67 u/L
  CREATININE: 0.14 mg/dL
  GLUCOSE: 117 mg/dL
  LACTATE DEHYDROGENASE: 394.67 u/L
  LIPASE: 7.33 u/L
  PHOSPHORUS: 10.63 mg/dL
  POTASSIUM: 6.65 MEQ/L
  SODIUM: 145.1 MEQ/L
  TOTAL BILIRUBIN: 0.13 mg/dL
  URIC ACID: 1.63 mg/dL
[2]
  ABSOLUTE BASOPHIL: 0 CELLS/uL
  ABSOLUTE EOSINOPHIL: 68.33 CELLS/uL
  ABSOLUTE LYMPHOCYTE: 15182.67 CELLS/uL
  ABSOLUTE MONOCYTE: 0 CELLS/uL
  ABSOLUTE SEGMENTED NEUTROPHIL: 1349 CELLS/uL
  BASOPHIL: 0%
  EOSINOPHIL: 0.33%
  ERYTHROCYTE COUNT: 5.73 x10E6/uL
  HEMATOCRIT: 36.73%
  HEMOGLOBIN: 14.03 G/DL
  LEUKOCYTE COUNT: 16.6 x10E3/uL
  LYMPHOCYTE: 91.67%
  MEAN CORPUSCULAR HEMOGLOBIN: 24.5 pg
  MEAN CORPUSCULAR HEMOGLOBIN CONCENTRATION: 38.17 G/DL
  MEAN CORPUSCULAR VOLUME: 64.17 fL
  MONOCYTE: 0%
  NEUTROPHIL: 8%
  NUCLEATED RED BLOOD CELLS: 0 /100WBC
  PLATELET COUNT: 1226 x10E3/uL
  ALANINE AMINOTRANSFERASE: 51.33 u/L
  ALBUMIN: 4.37 G/DL
  ALKALINE PHOSPHATASE: 522.67 u/L
  ASPARTATE AMINOTRANSFERASE: 83.67 u/L
  BLOOD UREA NITROGEN: 12.67 mg/dL
  CARBON DIOXIDE: 28 mmol/L
  CHLORIDE: 101.67 MEQ/L
  CHOLESTEROL: 36 mg/dL
  CREATINE PHOSPHOKINASE: 348.33 u/L
  CREATININE: 0.27 mg/dL
  GLUCOSE: 135.67 mg/dL
  LACTATE DEHYDROGENASE: 453.33 u/L
  LIPASE: 7.67 u/L
  PHOSPHORUS: 11.2 mg/dL
  POTASSIUM: 6.61 MEQ/L
  SODIUM: 145.07 MEQ/L
  TOTAL BILIRUBIN: 0.23 mg/dL
  TOTAL PROTEIN: 6.23 G/DL
  URIC ACID: 1.33 mg/dL
[3]
  ABSOLUTE BASOPHIL: 0 CELLS/uL
  ABSOLUTE EOSINOPHIL: 139.33 CELLS/uL
  ABSOLUTE LYMPHOCYTE: 14510.33 CELLS/uL
  ABSOLUTE MONOCYTE: 98 CELLS/uL
  ABSOLUTE SEGMENTED NEUTROPHIL: 652.33 CELLS/uL
  BASOPHIL: 0%
  EOSINOPHIL: 1%
  ERYTHROCYTE COUNT: 5.62 x10E6/uL
  HEMATOCRIT: 35.57%
  HEMOGLOBIN: 14.03 G/DL
  LEUKOCYTE COUNT: 15.4 x10E3/uL
  LYMPHOCYTE: 94.33%
  MEAN CORPUSCULAR HEMOGLOBIN: 25.13 pg
  MEAN CORPUSCULAR HEMOGLOBIN CONCENTRATION: 39.5 G/DL
  MEAN CORPUSCULAR VOLUME: 63.6 fL
  MONOCYTE: 0.67%
  NEUTROPHIL: 4%
  NUCLEATED RED BLOOD CELLS: 0 /100WBC
  PLATELET COUNT: 1110.33 x10E3/uL
  ALANINE AMINOTRANSFERASE: 49.33 u/L
  ALBUMIN: 3.97 G/DL
  ALKALINE PHOSPHATASE: 553.33 u/L
  ASPARTATE AMINOTRANSFERASE: 70.67 u/L
  BLOOD UREA NITROGEN: 19.33 mg/dL
  CARBON DIOXIDE: 26.67 mmol/L
  CHLORIDE: 102.67 MEQ/L
  CHOLESTEROL: 31.33 mg/dL
  CREATINE PHOSPHOKINASE: 297.67 u/L
  CREATININE: 0.26 mg/dL
  GLUCOSE: 141.33 mg/dL
  LACTATE DEHYDROGENASE: 123.67 u/L
  LIPASE: 7.33 u/L
  PHOSPHORUS: 11.23 mg/dL
  POTASSIUM: 6.54 MEQ/L
  SODIUM: 144.33 MEQ/L
  TOTAL BILIRUBIN: 0.27 mg/dL
  TOTAL PROTEIN: 6 G/DL
  URIC ACID: 1.13 mg/dL
